Test [1] addresses Heat shock protein HSP 90-alpha (Homo sapiens, UniProt P07900). Nature of the test: Luminescence-based dose response biochemical high throughput screening assay for inhibitors of the Heat Shock Protein 90 (HSP90). [Related pubchem assays: 1831 (Summary AID.), 1846 (Confirmation screen.), 1789 (Primary screen.)].
Test [2] deals with Dual specificity tyrosine-phosphorylation-regulated kinase 1A (Rattus norvegicus, UniProt Q63470). It is filed as biochemical, Homo sapiens.
For test [3], the target named is Nonstructural protein 1 (Influenza A virus, UniProt Q194T2). It is filed as functional, Influenza A virus (A/California/07/2009(H1N1)).
Test [4] has as its target T1, Short transient receptor potential channel 4 (Mus musculus, UniProt Q9QUQ5).
T1 sequence (Q9QUQ5 whole entry): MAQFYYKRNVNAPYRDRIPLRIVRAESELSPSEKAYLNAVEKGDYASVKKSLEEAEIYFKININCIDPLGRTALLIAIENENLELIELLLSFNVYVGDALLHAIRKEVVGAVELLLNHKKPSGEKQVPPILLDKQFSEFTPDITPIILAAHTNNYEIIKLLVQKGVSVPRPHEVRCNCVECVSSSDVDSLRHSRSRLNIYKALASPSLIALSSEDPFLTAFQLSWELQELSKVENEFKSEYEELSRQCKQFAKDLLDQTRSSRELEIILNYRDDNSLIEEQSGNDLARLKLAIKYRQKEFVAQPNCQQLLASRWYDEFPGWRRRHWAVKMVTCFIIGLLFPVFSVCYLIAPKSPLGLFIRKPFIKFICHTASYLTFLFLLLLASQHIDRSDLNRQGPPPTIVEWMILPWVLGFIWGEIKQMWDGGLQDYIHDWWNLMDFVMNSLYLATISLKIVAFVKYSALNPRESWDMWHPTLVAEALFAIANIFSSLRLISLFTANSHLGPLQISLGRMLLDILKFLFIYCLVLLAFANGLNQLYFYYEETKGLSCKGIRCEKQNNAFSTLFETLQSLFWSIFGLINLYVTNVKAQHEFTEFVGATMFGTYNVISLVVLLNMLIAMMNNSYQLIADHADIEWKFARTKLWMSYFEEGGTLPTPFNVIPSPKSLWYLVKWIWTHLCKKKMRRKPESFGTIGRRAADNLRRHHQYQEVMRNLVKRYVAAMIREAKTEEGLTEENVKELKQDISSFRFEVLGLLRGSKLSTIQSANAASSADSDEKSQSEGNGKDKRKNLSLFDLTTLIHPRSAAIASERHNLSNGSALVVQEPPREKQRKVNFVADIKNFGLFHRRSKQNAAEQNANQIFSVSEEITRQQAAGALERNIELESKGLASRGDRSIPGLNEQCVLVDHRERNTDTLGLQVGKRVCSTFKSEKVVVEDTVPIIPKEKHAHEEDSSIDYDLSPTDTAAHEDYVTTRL
Nature of the test: block of DAMGO-driven TRPC4 calcium entry – cell-based, HEK293 TRPC4/mu-opioid, Fluo-4 calcium, dose response (AID 434942).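 Note: potency of inhibitors blocking the TRPC4 calcium response.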 It is filed as functional.

Test [5] relates to INS1. As to the kind of experiment: INS-1E survival protection against cytokine death – cell-based, luminescence, retest, dose response (AID 449756).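 Note: cell death triggered by IL-1 beta plus TNF-alpha plus IFN-gamma mixture; protective hits raise ATP signal compared with cytokine alone wells.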 The test is classed as functional. Conditions: Rattus norvegicus.
Test [6] deals with T2, Streptokinase A (Streptococcus pyogenes serotype M1, UniProt P10520).
T2 sequence (P10520 whole entry): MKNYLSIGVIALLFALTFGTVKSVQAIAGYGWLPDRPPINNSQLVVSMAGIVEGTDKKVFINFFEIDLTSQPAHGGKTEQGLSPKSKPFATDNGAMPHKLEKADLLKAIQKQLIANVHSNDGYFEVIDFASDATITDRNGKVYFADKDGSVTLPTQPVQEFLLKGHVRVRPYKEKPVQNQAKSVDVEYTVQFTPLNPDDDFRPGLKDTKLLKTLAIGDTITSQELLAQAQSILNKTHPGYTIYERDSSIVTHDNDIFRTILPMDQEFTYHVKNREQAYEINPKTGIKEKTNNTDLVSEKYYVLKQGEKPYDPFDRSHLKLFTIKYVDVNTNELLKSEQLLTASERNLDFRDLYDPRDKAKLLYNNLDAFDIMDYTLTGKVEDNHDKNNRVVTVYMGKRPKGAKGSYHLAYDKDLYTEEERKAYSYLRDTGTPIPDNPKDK
Nature of the test: viability-normalized secreted streptokinase activity reduction – plasminogen activation absorbance, OD405, dose response (AID 1914).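 Note: secreted streptokinase activity via plasminogen activation per viability signal from cell pellet.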 The test is classed as functional, Streptococcus pyogenes M1 GAS.

Test [7] relates to Streptococcus sp. 'group A'. Nature of the test: Streptococcus pyogenes SK(-)GAS viability under kanamycin – luminescence, BacTiterGlo, confirmation, counter-screen for streptokinase expression inhibitor project, dose response (AID 1900). It is filed as functional, organism-based. On the technique in general: A counterscreen serves to expose hits that act by an unwanted route or on another target.

Test [8] can be described thus: IC50 of Artemis nuclease activity blockers – biochemical, fluorescence intensity, dose response (AID 720701).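 Note: Artemis endonuclease enzyme.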 It is filed as functional.
The test system of test [9] is Streptococcus. Nature of the test: GAS UMAA2166 growth inhibition – luminescence, BacTiterGlo, counter-screen for streptokinase expression inhibitor project, dose response (AID 1915).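 Note: potency for reduction of bacterial viability or growth.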 The test is classed as functional, organism-based.
Test [10] can be described thus: toxicity to human HepG2 hepatoma cells – cell-based, plate reader, dry powder samples, cytotoxicity control, dose response (AID 1159569).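 Note: inhibitor potency with signal falling toward the positive control level.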 The test is classed as functional.
Test [11] can be described thus: growth inhibition of yeast DHODH-expressing 3D7 parasites – SYBR Green, dry powder samples, dose response (AID 1159570).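 Note: parasite growth measured after 72 hours of compound exposure.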 It is filed as functional, cell-based.
The nature of test [12]: growth inhibition of PfATP4-mutant resistant parasites – NITD609-resistant line, SYBR Green, dry powder, dose response (AID 1159571).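 Note: parasites synchronized at ring stage by sorbitol before testing.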 The test is classed as functional, cell-based.
Test [13] can be described thus: Dd2 malaria parasite growth inhibition potency – SYBR Green, dry powder samples, dose response (AID 1159566).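 Note: potency for growth inhibition with lower SYBR green DNA signal.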 It is filed as functional, cell-based.
Test [14] in a line: P. falciparum Dd2 growth inhibitors, dose response, SYBR Green, cherry-picked samples (AID 1159567). The test is classed as functional, cell-based.
Test [15] is described as follows: Trypanosoma cruzi growth suppression in host cells – NIH3T3 host cells, beta-gal luminescence, confirmation (AID 2044).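 Note: intracellular parasites grown in NIH/3T3 mouse fibroblasts as host cells; luminescent beta-galactosidase reporter signal from transgenic T. cruzi replicating inside host cells; inhibitors lower the luminescence signal.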 The test is classed as functional, cell-based.
Test [16] can be described thus: NIH3T3 cell viability loss – ATP luminescence, mouse fibroblasts, counter-screen, dose response (AID 2010).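 Note: cells exposed to compound for about 90 hours before reading.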 The test is classed as functional, cell-based.
In test [17] the target is T3, Protein Tat (Human immunodeficiency virus type 1 group M subtype B (isolate HXB2)(HIV-1), UniProt P04608).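 Note: tat binding to TAR RNA read out by fluorescence polarization.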
T3 sequence (P04608 whole entry): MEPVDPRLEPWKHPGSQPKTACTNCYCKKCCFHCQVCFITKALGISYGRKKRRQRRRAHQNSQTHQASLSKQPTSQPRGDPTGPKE
It is filed as functional.

Test [18] can be described thus: viability loss in Vero cells – cytotoxicity control for Vif-APOBEC3G degradation inhibitor project, dose response (AID 1117358). The test is classed as functional. Conditions: Vero.
For test [19], the target named is Peroxisome proliferator-activated receptor gamma/Nuclear receptor corepressor 2 (Homo sapiens, UniProt P37231+Q9Y618). As to the kind of experiment: Counterscreen for NR2E3 inverse agonists: TR-FRET-based biochemical high throughput dose response assay to identify inverse agonists of the interaction between peroxisome proliferator-activated receptor gamma (PPARg) and nuclear receptor co-repressor 2 (NCOR2). The test is classed as functional.

In test [20] the target is Photoreceptor-specific nuclear receptor (Homo sapiens, UniProt Q9Y5X4). Nature of the test: ligands suppressing NR2E3 nuclear receptor activity – biochemical, TR-FRET, dose response (AID 463256). It is filed as functional. (In general: Time-resolved FRET reads energy transfer from a long-lived donor to a nearby acceptor.)
A short description of test [21]: Luminescent dose response cell-based high throughput screening assay for inhibitors of the Janus kinase 2 mutant JAK2V617F. [Related pubchem assays: 1446 (Primary screen.), 1521 (Confirmation assay.), 1486 (Counter screen.)]. It is filed as functional.
Test [22] can be described thus: Dd2 parasite growth inhibition in erythrocytes – SYBR Green, dry powder samples, set 9, dose response (AID 1159568). It is filed as functional, cell-based.
The nature of test [23]: toxicity to human hepatoma HepG2 cells – cell-based, cherry-picked samples, cytotoxicity control, dose response (AID 1159577). The test is classed as functional.
Test [24] addresses Bifunctional protein GlmU (Mycobacterium tuberculosis, UniProt P9WMN3). Nature of the test: Inhibitors of Mycobacterial Glucosamine-1-phosphate acetyl transferase (GlmU). Secondary screen. Also noted: species or system Mycobacterium tuberculosis H37Rv.
For test [25], the system named is HT-1080. As to the kind of experiment: HT1080 cell viability loss – fluorescence readout (AID 620). The test is classed as functional, cell-based. Conditions: Homo sapiens.
The test system of test [26] is HEK293. As to the kind of experiment: EBV LMP1 TES2 canonical NF-kB signalling blockers – cell-based, HEK293, luciferase, cherry-pick, dose response (AID 588343). It is filed as functional. Conditions: Homo sapiens.
Test [27] deals with Luciferin 4-monooxygenase (Photinus pyralis, UniProt P08659). Nature of the test: Counter Screen for Luciferase-based Assay Positives. [Related pubchem assays: 620, 618, 411 ].

Calls of active or inactive are those of the source.

We go through eleven compounds from ChEMBL document CHEMBL1201862, “PubChem BioAssay data set” (2004).

Chain of Luciferin 4-monooxygenase (P08659 whole entry): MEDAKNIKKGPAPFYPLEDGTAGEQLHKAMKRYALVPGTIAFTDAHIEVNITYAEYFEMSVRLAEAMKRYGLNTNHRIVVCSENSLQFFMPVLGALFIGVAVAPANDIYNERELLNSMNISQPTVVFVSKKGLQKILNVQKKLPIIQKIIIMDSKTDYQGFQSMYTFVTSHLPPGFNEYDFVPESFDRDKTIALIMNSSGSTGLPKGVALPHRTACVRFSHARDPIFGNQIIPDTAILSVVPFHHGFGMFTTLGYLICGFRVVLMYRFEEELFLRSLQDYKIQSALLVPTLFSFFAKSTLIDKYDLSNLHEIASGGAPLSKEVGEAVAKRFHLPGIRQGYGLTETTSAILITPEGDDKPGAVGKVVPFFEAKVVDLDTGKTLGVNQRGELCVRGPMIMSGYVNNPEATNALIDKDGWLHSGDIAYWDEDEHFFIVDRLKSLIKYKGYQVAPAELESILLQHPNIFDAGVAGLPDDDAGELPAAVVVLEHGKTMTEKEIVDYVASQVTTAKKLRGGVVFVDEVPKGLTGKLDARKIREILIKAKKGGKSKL
Chain of Peroxisome proliferator-activated receptor gamma/Nuclear receptor corepressor 2 (P37231 whole entry): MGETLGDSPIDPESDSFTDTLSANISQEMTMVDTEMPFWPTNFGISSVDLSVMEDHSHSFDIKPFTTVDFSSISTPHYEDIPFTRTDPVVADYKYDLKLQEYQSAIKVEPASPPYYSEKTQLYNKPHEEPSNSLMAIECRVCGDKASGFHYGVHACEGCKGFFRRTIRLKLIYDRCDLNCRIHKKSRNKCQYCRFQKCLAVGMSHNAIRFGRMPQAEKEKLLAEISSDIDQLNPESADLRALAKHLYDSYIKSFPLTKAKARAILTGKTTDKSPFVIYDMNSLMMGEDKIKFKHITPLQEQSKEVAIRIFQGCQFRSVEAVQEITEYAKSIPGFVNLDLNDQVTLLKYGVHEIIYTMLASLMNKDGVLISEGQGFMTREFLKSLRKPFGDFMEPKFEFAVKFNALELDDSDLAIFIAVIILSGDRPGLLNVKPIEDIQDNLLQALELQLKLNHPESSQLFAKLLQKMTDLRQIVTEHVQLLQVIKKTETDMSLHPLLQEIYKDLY
Chain of Peroxisome proliferator-activated receptor gamma/Nuclear receptor corepressor 2 (Q9Y618 whole entry): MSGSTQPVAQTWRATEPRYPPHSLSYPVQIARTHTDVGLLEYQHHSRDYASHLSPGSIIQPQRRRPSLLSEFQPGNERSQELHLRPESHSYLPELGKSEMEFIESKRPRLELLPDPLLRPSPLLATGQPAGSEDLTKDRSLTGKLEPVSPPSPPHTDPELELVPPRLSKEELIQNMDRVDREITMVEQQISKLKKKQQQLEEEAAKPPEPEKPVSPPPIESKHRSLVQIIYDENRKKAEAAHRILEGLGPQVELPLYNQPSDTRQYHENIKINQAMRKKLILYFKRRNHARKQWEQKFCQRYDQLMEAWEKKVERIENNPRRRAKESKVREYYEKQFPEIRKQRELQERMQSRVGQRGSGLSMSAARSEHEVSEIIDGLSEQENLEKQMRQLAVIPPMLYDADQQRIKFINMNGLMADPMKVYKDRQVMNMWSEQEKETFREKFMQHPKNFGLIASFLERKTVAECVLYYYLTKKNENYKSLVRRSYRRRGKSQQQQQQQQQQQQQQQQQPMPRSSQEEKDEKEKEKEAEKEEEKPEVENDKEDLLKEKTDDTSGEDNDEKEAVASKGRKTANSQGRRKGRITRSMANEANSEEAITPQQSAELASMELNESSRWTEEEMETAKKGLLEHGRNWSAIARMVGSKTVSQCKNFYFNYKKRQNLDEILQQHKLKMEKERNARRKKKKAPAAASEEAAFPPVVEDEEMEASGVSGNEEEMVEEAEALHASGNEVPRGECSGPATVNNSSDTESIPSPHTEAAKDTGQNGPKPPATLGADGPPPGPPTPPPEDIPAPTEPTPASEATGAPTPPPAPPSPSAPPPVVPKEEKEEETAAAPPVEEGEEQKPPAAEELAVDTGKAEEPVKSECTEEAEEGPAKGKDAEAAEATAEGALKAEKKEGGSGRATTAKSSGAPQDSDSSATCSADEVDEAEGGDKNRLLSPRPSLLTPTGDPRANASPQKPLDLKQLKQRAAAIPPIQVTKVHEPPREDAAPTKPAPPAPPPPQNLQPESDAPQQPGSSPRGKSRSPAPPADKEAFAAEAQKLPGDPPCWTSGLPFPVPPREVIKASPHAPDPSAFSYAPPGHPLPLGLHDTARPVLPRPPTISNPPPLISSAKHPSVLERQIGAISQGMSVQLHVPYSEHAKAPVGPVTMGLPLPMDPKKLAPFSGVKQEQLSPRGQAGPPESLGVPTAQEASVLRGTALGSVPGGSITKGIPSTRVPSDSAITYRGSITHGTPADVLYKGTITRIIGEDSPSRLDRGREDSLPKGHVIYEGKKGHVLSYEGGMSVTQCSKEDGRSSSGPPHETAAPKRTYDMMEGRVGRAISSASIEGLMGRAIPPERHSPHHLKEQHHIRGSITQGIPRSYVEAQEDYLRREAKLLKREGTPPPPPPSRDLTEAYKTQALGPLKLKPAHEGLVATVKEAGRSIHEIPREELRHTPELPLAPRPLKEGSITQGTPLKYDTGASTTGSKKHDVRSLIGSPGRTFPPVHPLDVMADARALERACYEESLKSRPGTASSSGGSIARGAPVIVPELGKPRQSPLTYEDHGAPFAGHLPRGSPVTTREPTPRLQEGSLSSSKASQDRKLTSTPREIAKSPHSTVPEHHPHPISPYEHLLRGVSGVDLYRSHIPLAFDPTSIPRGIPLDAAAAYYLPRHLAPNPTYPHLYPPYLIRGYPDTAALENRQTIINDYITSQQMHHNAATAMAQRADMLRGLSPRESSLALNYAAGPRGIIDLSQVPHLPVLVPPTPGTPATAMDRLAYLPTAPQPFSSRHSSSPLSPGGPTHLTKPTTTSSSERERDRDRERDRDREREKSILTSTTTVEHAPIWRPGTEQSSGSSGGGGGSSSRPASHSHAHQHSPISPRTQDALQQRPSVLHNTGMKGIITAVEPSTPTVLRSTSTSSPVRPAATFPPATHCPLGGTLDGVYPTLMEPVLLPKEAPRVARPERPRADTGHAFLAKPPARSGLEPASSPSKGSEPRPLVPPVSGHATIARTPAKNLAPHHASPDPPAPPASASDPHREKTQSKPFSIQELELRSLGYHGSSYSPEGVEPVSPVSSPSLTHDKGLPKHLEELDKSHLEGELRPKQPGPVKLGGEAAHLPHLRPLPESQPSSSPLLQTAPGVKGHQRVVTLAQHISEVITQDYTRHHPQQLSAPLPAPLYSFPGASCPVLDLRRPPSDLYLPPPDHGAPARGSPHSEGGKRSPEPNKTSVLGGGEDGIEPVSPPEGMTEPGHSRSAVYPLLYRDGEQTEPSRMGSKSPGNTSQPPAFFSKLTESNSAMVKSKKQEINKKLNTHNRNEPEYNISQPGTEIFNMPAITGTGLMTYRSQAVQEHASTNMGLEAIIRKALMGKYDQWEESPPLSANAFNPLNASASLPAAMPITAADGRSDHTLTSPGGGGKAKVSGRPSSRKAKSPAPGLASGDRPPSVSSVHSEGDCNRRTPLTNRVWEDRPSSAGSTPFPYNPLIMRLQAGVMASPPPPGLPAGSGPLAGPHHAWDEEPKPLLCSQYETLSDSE
Chain of Bifunctional protein GlmU (P9WMN3 whole entry): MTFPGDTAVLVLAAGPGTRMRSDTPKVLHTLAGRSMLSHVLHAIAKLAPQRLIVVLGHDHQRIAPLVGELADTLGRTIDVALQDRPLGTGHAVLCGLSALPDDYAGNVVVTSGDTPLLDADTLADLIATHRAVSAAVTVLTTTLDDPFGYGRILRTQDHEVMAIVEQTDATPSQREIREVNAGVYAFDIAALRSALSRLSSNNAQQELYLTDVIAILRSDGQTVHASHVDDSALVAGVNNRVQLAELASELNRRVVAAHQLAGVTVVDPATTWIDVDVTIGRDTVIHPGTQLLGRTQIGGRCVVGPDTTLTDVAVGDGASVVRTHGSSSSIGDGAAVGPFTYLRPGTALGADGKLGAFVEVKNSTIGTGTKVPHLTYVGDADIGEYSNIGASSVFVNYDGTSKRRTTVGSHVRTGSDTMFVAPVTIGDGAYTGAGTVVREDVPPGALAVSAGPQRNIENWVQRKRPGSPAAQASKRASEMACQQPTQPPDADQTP
Chain of Photoreceptor-specific nuclear receptor (Q9Y5X4 whole entry): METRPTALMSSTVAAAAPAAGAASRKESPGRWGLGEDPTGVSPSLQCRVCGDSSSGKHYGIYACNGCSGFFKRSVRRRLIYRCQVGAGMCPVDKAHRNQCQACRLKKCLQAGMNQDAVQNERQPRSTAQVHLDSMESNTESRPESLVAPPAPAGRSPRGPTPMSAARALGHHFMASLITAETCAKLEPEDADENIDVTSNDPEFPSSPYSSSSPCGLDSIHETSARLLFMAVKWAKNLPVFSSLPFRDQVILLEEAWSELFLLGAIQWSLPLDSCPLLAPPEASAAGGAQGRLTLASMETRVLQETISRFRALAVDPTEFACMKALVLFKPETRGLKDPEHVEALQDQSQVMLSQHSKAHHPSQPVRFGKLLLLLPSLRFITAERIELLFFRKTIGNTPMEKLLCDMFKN
Chain of Nonstructural protein 1 (Q194T2 whole entry): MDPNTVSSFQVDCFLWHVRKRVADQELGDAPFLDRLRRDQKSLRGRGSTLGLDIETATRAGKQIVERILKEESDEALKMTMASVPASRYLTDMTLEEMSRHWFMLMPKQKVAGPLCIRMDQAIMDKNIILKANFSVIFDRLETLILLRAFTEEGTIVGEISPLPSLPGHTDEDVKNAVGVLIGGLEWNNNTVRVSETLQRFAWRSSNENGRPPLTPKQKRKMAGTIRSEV

As to `COc1ccccc1NC(=O)c1coc(=O)c(Br)c1`, the IC50 in test [1] was 0.658 µM (active).

`CS(=O)(=O)c1ccc(-c2cn3cc(C(=O)O)ccc3n2)cc1`: the AC50 in test [2] was 1.96 µM (active). In test [1], the 50% inhibitory concentration (IC50) was 2.5 µM (active).

In the case of `c1ccc(-c2nc(NCc3ccco3)c3ccccc3n2)nc1`, the results for the IC50 in test [3] and in [8] were 14.5 µM (active) and 8.96 µM (active), respectively. Further, the 50% effective concentration (EC50) in [4] was 0.335 µM (active); in test [6], > 150 µM (not active); in test [7], 3.14 µM (active); in test [9] it was 12.1 µM (active). In test [5], the AC50 was 3.41 µM (active).

In the case of `C[C@@H]1CN([C@@H](C)CO)C(=O)c2cccc(NC(=O)c3nc4ccccc4s3)c2O[C@H]1CN(C)C(=O)Nc1ccc(C(F)(F)F)cc1`, the AC50 in test [10] is > 100 µM (inactive); in test [11] it was 0.274 µM (active); in test [12], 0.323 µM (active); in [13], 0.245 µM (active); in test [14], 1.06 µM (active).

Regarding `Cc1noc(/C=C/c2ccco2)c1S(=O)(=O)N1CCC(C(=O)N2c3ccccc3CC2C)CC1` (stereo unspecified), the EC50 in test [15] was 1.66 µM (active); in test [16], > 60 µM (not active). In [17], the IC50 is > 100 µM (active). In addition, the CC50 in [18] is 39.7 µM (active).

With `CC(=O)c1ccc(-c2ccc(C(=O)Nc3nc(C)c(C(C)=O)s3)o2)cc1`, the IC50 in test [19] is 9.53 µM (active); in [20], 8.01 µM (active).

Turning to `COc1ccc(-c2cc(-c3cc(C)ccc3O)[nH]n2)cc1`, the IC50 in test [21] is 1.83 µM (active).

`CCCC(=O)N1CCC2(CC1)CN(S(=O)(=O)c1ccc(C)cc1)[C@@H](CO)c1[nH]c3cc(OC)ccc3c12`: the AC50 in test [10] is 77.5 µM (active); in [22], 0.182 µM (active); in [11] it was 0.137 µM (active); in test [12], 0.115 µM (active); in [13] it was 0.0986 µM (active); in test [14] it was < 0.3 µM (active).

On to `Cc1cccc(-c2ccc([C@@H]3[C@@H]4CN(C(=O)CN(C)C)C[C@H]3N4)cc2)c1`, for which the values for the AC50 in test [22], in [23] and in [14] were 4.19 µM (active), 32.1 µM (active) and 3.46 µM (active), respectively.

`COc1ccc(OCc2cc(C(=O)O)c(C)o2)cc1`: in test [24], the IC50 was 51.7 µM (active).

For `COc1cccc(C(=O)Nc2nc3ccccc3[nH]2)c1`, the values for the EC50 in test [25] and in test [27] were > 50 µM (not active) and 0.75 µM (active), respectively. Further, the half-maximal activity concentration (AC50) in test [26] was 3.29 µM (active). In addition, the CC50 in [18] is > 40 µM (active).

As usually defined, the IC50 is the concentration that gives 50% inhibition. What is called AC50 is the midpoint of the concentration-response curve, whichever way the signal moves. In general, EC50 refers to the concentration needed to bring the measured effect to its halfway point. By CC50 is commonly meant the concentration that lowers cell viability or growth by half.
